Measured values: publication PMC6684685, “Evaluation of polydentate picolinic acid chelating ligands and an α-melanocyte-stimulating hormone derivative for targeted alpha therapy using ISOL-produced ^225Ac” (EJNMMI Radiopharmacy and Chemistry, 2019)
Read-outs that look alike come from different tables or passages of the source.

Key:
[1] = Stability of 225Ac complexes in human serum (competition, TLC); assay type: in vitro ADME; conditions: ambient temperature
Experimental: (§1) Varying TLC/iTLC plate systems were selected for different ligands based from results of positive and negative radiolabeling controls: • Method A, for [^225Ac(octapa)]^− and [^225Ac(CHXoctapa)]^−: iTLC-SG plates (Agilent, 2 cm × 10 cm, baseline at 1.5 cm), developed using 10 mM NaOH/9% NaCl solution. Under these conditions free ^225Ac^III remains at the baseline (Rf = 0), while the ^225Ac-ligand complex migrates upwards with the solvent (Rf > 0); or • Method B, for [^225Ac(bispa^2)]^+ and [^225Ac(macropa)]^+: aluminum-backed ultrapure silica gel 60 with 250 μm thickness TLC plates (Fisher, 2 cm × 10 cm, baseline at 1.5 cm), developed using 0.4 M sodium citrate (pH 4) with 10% methanol. Under these conditions free ^225Ac^III migrates with the solvent front (Rf = 1), while ^225Ac-ligand complex remains at the baseline (Rf = 0); (Comba et al. [2017]; Thiele et al. [2017]) or • Method C, for [^225Ac(DOTA)]^−: iTLC-SA plates (Agilent, 2 × 10 cm, baseline at 1.5 cm) and developed using 50 mM EDTA buffer, pH 4. Under these conditions free ^225Ac^III migrates with the solvent front (Rf = 1), while ^225Ac-ligand complex remains at the baseline (Rf = 0); or • Method D, for human serum stability (below): aluminum-backed ultrapure silica gel 60 with 250 um thickness TLC plates (Fisher, 2 cm × 10 cm, baseline at 1.5 cm), developed in 50 mM EDTA, pH 5. Under these conditions, chelate-bound ^225Ac remains at the baseline (Rf = 0), and any ^225Ac^III that has de-complexed from the chelate will travel with the solvent front (Rf = 1). Method D was validated by incubating “free” ^225Ac^III with human serum under analogous conditions to ensure all the activity eluted with the solvent front (Rf ~ 1).
To investigate the stabilities of the ^225Ac-complexes, a competition experiment was performed in the presence of excess human serum and the displacement of radioactivity from the chelator to serum proteins was tracked over the course of seven days. Endogenous metal-binding proteins in serum such as apo-transferrin and metallothionein can compete for and displace chelator-bound metal ions in vivo, preventing successful delivery of the radionuclide to the desired target. The ^225Ac-complexes were prepared using the radiolabeling protocols described above and added to an equal volume (170–180 μL) of human serum (stored at − 5 °C and thawed at ambient temperature). At varying time points (0.5 h to 7 days), small aliquots (1–5 μL) were spotted on iTLC plates using Methods B or D, described above. Representative TLC radio-chromatograms of a serum competition assay with ligand and control are presented in Additional file 1: Figures S2 and S3.

[2] = La(III) exchange competition assay, 50-fold excess La; assay type: physicochemical; conditions: 50-fold excess La^III, ambient temperature
Experimental: as §1
The stability of a radiometal-chelate complex is also often assessed by its ability to withstand transchelation in the presence of excess stable isotopes of the radiometal. Though this is an impossible experiment to perform with Ac since all Ac isotopes are unstable, lanthanum(III) has a similar ionic radius ([…], CN = 6–9) and charge to actinium(III) and is often considered a chemical surrogate to Ac^III. Using non-radioactive metal ions such as La^III as a competitor for ligand complexation is a straightforward method to probe the kinetic off-rate of a pre-formed Ac^III complex, since many ligands that bind Ac^III may also efficiently complex La^III. Herein, ^225Ac-complexes were prepared using the radiolabeling protocols described above and combined with La(NO3)3 (0.1 M, 50 M equivalents compared to the ligand) and allowed to react at ambient temperature. At varying time points (1 h – 7 d), aliquots of the competition reaction mixture (1–5 μL) were spotted on aluminum backed TLC plates and developed using the TLC methods described above.

[3] = 50-fold excess La^III, ref Thiele et al. [2017], cited from earlier work
[4] = human serum, n = 1, ref Thiele et al. [2017], cited from earlier work

Compound	% Stable ([1]; 1 h)	% Stable ([1]; 4 h)	% Stable ([1]; 1 d)	% Stable ([1]; 2 d)	% Stable ([1]; 3 d)	% Stable ([1]; 4 d)	% Stable ([1]; 7 d)	% Stable ([2]; 1 h)	% Stable ([2]; 5 h)	% Stable ([2]; 1 d)	% Stable ([2]; 2 d)	% Stable ([2]; 7 d)	further results
O=C([O-])CN(CCN(CC(=O)[O-])Cc1cccc(C(=O)[O-])n1)Cc1cccc(C(=O)[O-])n1.[225Ac+3] [[^225Ac(octapa)]^−]	97.9 ± 0.9%	96.9 ± 1.5%	94.9 ± 1.2%	96.1 ± 1.0%	94.9 ± 1.1%	95.9 ± 1.9%	92.9 ± 1.0%	78.9 ± 2.9%	42.7 ± 0.3%	4.7 ± 1.5%	6.1 ± 2.6%		
O=C([O-])c1cccc(CN2CCOCCOCCN(Cc3cccc(C(=O)[O-])n3)CCOCCOCC2)n1.[225Ac+3] [[^225Ac(macropa)]^+]													% Stable ([3]; 1 h): 95%; % Stable ([3]; 1 d): 93%; % Stable ([3]; 2 d): 92%; % Stable ([3]; 3 d): 91%; % Stable ([3]; 6 d): 93%; % Stable ([3]; 7 d column (footnote: 8 d time point)): 91^b %; % Stable ([3]; 7 d column (footnote: 8 d time point), listed as [^225Ac(macropa)]^−): 91%; % Stable ([4]; 0.5 h): 96%; % Stable ([4]; 1 h): 95%; % Stable ([4]; 4 h): 93%; % Stable ([4]; 1 d): 90%; % Stable ([4]; 2 d): 93%; % Stable ([4]; 3 d): 90%; % Stable ([4]; 7 d): 90%
O=C([O-])CN1CCN(CC(=O)[O-])CCN(CC(=O)[O-])CCN(CC(=O)[O-])CC1.[225Ac+3] [[^225Ac(DOTA)]^−, reference compound]	93.9 ± 4.5%	94.4 ± 3.7%	90.9 ± 5.6%	91.8 ± 5.6%		91.1 ± 6.1%	84.7 ± 8.1%	95.2 ± 3.3%	94.5 ± 3.5%	94.9 ± 2.9%	86.2 ± 3.1%	77.1 ± 3.6%	% Stable ([1]; 0.5 h): 92.4 ± 4.0%
O=C([O-])c1cccc(CN(CCN(Cc2cccc(C(=O)[O-])n2)CP(=O)([O-])[O-])CP(=O)([O-])[O-])n1.[225Ac+3] [[^225Ac(phospa)]^3−]	81.6 ± 1.1%		81.5 ± 0.2%		80.2 ± 1.1%	76.2 ± 0.1%	77.1 ± 6.4%		0%				
O=C([O-])CN(Cc1cccc(C(=O)[O-])n1)C1CCCCC1N(CC(=O)[O-])Cc1cccc(C(=O)[O-])n1.[225Ac+3] (centres unmarked) [[^225Ac(CHXoctapa)]^−]	95.9 ± 1.0%	96.8 ± 1.7%	97.0 ± 0.9%	96.7 ± 1.6%	96.1 ± 1.5%	96.7 ± 1.2%	95.6 ± 1.6%		81.8 ± 4.3%	45.7 ± 3.1%	26.5 ± 8.9%	3.9 ± 0.6%	% Stable ([2]; 3 d): 18.1 ± 0.4%; % Stable ([2]; 6 d): 5.0 ± 0.4%
